# In patent US20260008805A1, “ADENOSINE ANALOGS FOR THE TREATMENT OF DISEASE” (BIOINTERVENE, INC., priority 2022, published 2026):
# Where two headings read alike, the source gives them in different places.
# Experiments:
# human A3 receptors = target: T1, human A3 receptors (Homo sapiens, UniProt P0DMS8); experiment: Adenosine receptor binding assay ([3H]HEMADO competition); settings: Cheng-Prusoff, read-out: hA3 Ki
# T1 construct: expressed in transfected cells; host or cells: HEK-293 cells, stably transfected; membrane preparation
# T1 sequence (P0DMS8 1-318): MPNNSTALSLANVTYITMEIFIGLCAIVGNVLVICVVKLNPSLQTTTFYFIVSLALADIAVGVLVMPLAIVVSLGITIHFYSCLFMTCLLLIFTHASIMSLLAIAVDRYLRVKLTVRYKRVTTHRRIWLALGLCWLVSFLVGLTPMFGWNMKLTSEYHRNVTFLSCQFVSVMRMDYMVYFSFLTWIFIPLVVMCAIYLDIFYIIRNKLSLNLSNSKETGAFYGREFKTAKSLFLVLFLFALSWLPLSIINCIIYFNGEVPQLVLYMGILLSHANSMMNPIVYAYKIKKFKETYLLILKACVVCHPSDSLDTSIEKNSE
# Text: Materials and Reference Compounds: [^3H] HEMADO (obtained from (ARC, Cat: ART1456) and [3H] DPCPX (obtained from PerkinElmer Cat no. NET974250UC)). IB-MECA was obtained from Tocris (Bristol, UK) and N6-cyclopentyl adenosine (CPA) is obtained from Sigma-Alrich (Poole, UK). Cell culture media, G418 and hygromycin are obtained from Invitrogen (Paisley, UK). Fetal calf serum is obtained from Perbio Science (Cheshire, UK). All other reagents are obtained from Fisher Chemicals (Loughborough, UK).
# The method followed is that of Yates L, Clark J H, Martin T J, James S, Broadley K J, Kidd E J. Radioligand binding and functional responses of ligands for human recombinant adenosine A3 receptors. Auton Autacoid Pharmacol. 2006; 26 (2): 191-200. Cells stably transfected with the human adenosine A3 or A1 receptor are grown in Dulbecco's modified Eagles medium with nutrient mixture F12 containing NaHCO3 and Glutamax. Media is supplemented with 10% fetal calf serum, geneticin (G418; 0.67 mg/mL), hygromycin (500 μg/mL) and adenosine deaminase (1 U/mL). Cells are maintained at 37° C. with 5% CO2 in air. Cells are harvested and homogenized in ice-cold Tris buffer [50 mM Tris, 150 mM NaCl, 1 mM ethylenediaminetetraacetic acid (EDTA), pH 7.4] supplemented with the peptidase inhibitors, 4-(2-aminoethyl)benzene sulfonylfluoride (1 mM) and bacitracin (0.1 mg/mL), using a Polytron homogenizer (3×10 s bursts). The homogenate is spun for 10 min (4° C.) at 500 g. The supernatant is retained and the pellet is re-suspended in the buffer, homogenized and spun as above. The combined supernatants are centrifuged for 15 min (4° C.) at 48,000 g. The resultant pellet is re-suspended in the buffer and centrifuged for a second time at 48,000 g. The membrane pellet is then suspended in Tris buffer containing no peptidase inhibitors or adenosine deaminase and stored at −80° C. at a protein concentration of 1 mg/mL.
# Binding Assays: Radioligand-binding assays are performed using the adenosine A3 receptor agonist [^3H] HEMADO and the A1 receptor […] [^3H] DPCPX. Binding assays are conducted in a total volume of 100 μL containing a 50 mM Tris, pH 7.4 buffer with or without 10 mM MgCl2, 20 μg membranes and either 4.154 nM [3H] HEMADO (for the A3 receptor) or 1.6065 nM [^3H] DPCPX (for the A1 receptor). Assays are conducted at room temperature for 60 min (A1 receptor) or 120 min (A3 receptor) and terminated by the addition of 2 ml of ice-coldish buffer (50 mM Tris, pH 7.4 with or without 10 mM MgCl2) and rapid filtration over 0.03% polyethylenimine-treated Whatman GF/C filters using a Brandel cell harvester (Semat International Ltd., St Albans, UK). Filters are then ished three times with 2 ml of ice-cold buffer. The filter-bound radioactivity are counted using a Compugamma counter (LKB Wallac, Turku, Finland). Competition experiments are performed to investigate the ability of reference compounds and embodiments of the invention to inhibit [^3H] HEMADO binding. Non-specific binding are determined using the respective compound at its highest concentration.
# Data Analysis: The Kd and Bmax values for binding data are calculated based upon the molar amounts of bound and free [^3H] HEMADO. […] IC50 and Ki values and Hill slopes for inhibition of the radioligand binding by the compounds of the invention are calculated from the ligand competition curves using the Excel spreadsheet and the Kd value calculated for either [^3H] HEMADO or [^3H] DPCPX. The results are expressed as a percent of control specific binding and as a percent inhibition of control specific binding obtained in the presence of the compounds of the invention. The IC50 values (concentration causing a half-maximal inhibition of control specific binding) and Hill coefficients (nH) are determined by non-linear regression analysis of the competition curves generated with mean replicate values using Hill equation curve fitting: […]
# [1] = target: T2, human adenosine A3 receptor (Homo sapiens, UniProt P0DMS8); experiment: Intracellular cAMP levels (inhibition of forskolin-stimulated cAMP production); assay type: cell-based; settings: for EC50: CHO-K1 cells expressing human adenosine A3 receptor, forskolin 10 μM; for cAMP Efficacy (%): maximal response as percentage of the response produced by 100 nM IB-MECA
# T2 construct: expressed in transfected cells; host or cells: CHO-K1 cells, stably transfected
# T2 sequence (P0DMS8 1-318): T1 sequence (P0DMS8 1-318)
# Text: The method followed is that published in Yates L, Clark J H, Martin T J, James S, Broadley K J, Kidd E J. Radioligand binding and functional responses of ligands for human recombinant adenosine A3 receptors. Auton Autacoid Pharmacol. 2006 April; 26 (2): 191-200.
# Materials and Cell Culture: Adenosine deaminase is obtained from Roche (Lewes, UK). Forskolin is obtained from Sigma-Aldrich (Poole, UK). The sources of other materials are provided above in Example 1. CHO-K1 cells stably transfected with the human adenosine A3 receptor are grown in Dulbecco's modified Eagles medium with nutrient mixture F12 containing NaHCO3 and Glutamax. Media is supplemented with 10% fetal calf serum, geneticin (G418; 0.67 mg/mL), hygromycin (500 μg/mL) and adenosine deaminase (1 U/mL). Cells are maintained at 37° C. with 5% CO2 in air.
# CAMP Measurements: Intracellular cAMP production is measured directly using a non-acetylation cAMP enzyme immunoassay (Amersham Biosciences, Little Chalfont, UK). Cultured CHO cells expressing human adenosine A3 receptors are allowed to plate overnight in 96-well plates in culture medium containing adenosine deaminase. Twenty-four hours later, they are incubated with adenosine analogues or compounds of the invention (0.1 nM-1 μM) for 5 min at 37° C., followed by incubation with forskolin (10 μM) for 10 min. The cells are then lysed with 200 μL of lysis reagent 1 provided with the kit for 10 min to release intracellular CAMP. Aliquots of the supernatants are then transferred to a 96-well microtitre plate coated with donkey anti-rabbit IgG; 100-μL cAMP standards (12.5-3200 fmol/well) are also added to the microtitre plate; 100 μL of rabbit anti-cAMP antibody is added to all wells and incubated at 2-5° C. for 2 h. The antiserum is made up in lysis reagent 2, which sequesters the key component in lysis reagent 1 and ensures that CAMP is free for subsequent analysis. Then 50 μL of cAMP peroxidase conjugate is added to all wells and left to incubate for 60 min at 2-5° C. to allow competition for the antibody between the un-labelled and horse radish peroxidase (HRP)-labelled cAMP. Wells are then ished with buffer and 150 μL of enzyme substrate containing 3,3′,5,5′-tetramethylbenzidine/hydrogen peroxide in 20% (v/v) dimethylformamide is added to each well and left to incubate for 60 min on a Titramax 100 microtitre plate shaker (Heidolph Instruments, Schwabach, Germany) at room temperature for color development. The reaction is stopped by the addition of 100 μL of 1 M sulfuric acid and the optical density (OD) read at 450 nm on a spectrophotometric MRX microplate reader (Dynex Technologies, Chantilly, VA, USA).
# Analyses: Each sample/standard was analyzed in duplicate and the resulting OD values averaged. The percent bound (B/B0) for each standard and sample was calculated using the following relationship:
# [formula] • where B is the specific OD for standard/sample and B0 is the specific OD for the zero standard. A standard curve was generated by plotting % B/B0 as a function of the log fmol cAMP standard per well. The fmol per well value for cAMP in each sample was then read from the graph. The results are expressed as a percent of control agonist response: (measured response/control response)*100 in the presence of the compounds of the invention. Concentration-response curves for inhibition of cAMP production were constructed for all compounds of the invention and reference compounds. The EC50 values (concentration producing a half-maximal response) were determined by non-linear regression analysis of the concentration-response curves generated with mean replicate values using Hill equation curve fitting, according to the equation:
# [formula] • where Y=response, A=left asymptote of the curve, D=right asymptote of the curve, C=compound concentration, and C50=EC50, and nH=slope factor. […]
# [2] = Table 2, membranes of HEK-293 cells expressing human A3 receptor
# [3] = Table 2, # = average between two data points
# [4] = Table 1, membranes of HEK-293 cells expressing human A3 receptor
SMILES,Ki (human A3 receptors; [2]) [nM],"EC50 [1, 3] [nM]","cAMP Efficacy (%) [1, 3]",further results
CC1Cc2c(Cl)nc3c(ncn3[C@H]3[C@H](O)[C@H](O)[C@]4(CO)C[C@H]34)c2N1 (some centres unmarked) [3A*],65.7,–,–,–
Cc1cc2c(C#N)nc3c(ncn3[C@H]3[C@H](O)[C@H](O)C4C[C@@H]43)c2[nH]1 (some centres unmarked) [4A*],1.09,–,–,–
CNC(=O)[C@@]12C[C@@H]1[C@@H](n1cnc3c4c(c(Cl)nc31)CC(C)N4)[C@H](O)[C@@H]2O (some centres unmarked) [5A*],3.84,0.82,105.62%,–
Cc1cc2c(C#CC3CC3)nc3c(ncn3[C@H]3[C@H](O)[C@H](O)C4C[C@@H]43)c2[nH]1 (some centres unmarked) [7A*],0.619,0.91,47.98%,–
O[C@H]1[C@H](n2cnc3c4[nH]c(Cc5ccccc5)cc4c(Cl)nc32)[C@H]2CC2[C@H]1O (some centres unmarked) [9A*],5.34,2.15,74.92%,–
CNC(=O)[C@@]12C[C@@H]1[C@@H](n1cnc3c4c(c(Cl)nc31)C(=O)CC(C)N4)[C@H](O)[C@@H]2O (some centres unmarked) [11A*],3.36,–,–,–
CC1Cc2c(Cl)nc3c(ncn3[C@H]3[C@H](O)[C@H](O)C4C[C@@H]43)c2N1 (some centres unmarked) [12A*],14.8,11.4,63.56%,–
CC1CC(=O)c2c(Cl)nc3c(ncn3[C@@H]3[C@@H](O)[C@@H](O)[C@@]4(CO)C[C@@H]34)c2N1 (some centres unmarked) [13A*],24.1,–,–,–
Cc1cc2cnc3c(ncn3[C@H]3[C@H](O)[C@H](O)C4C[C@@H]43)c2[nH]1 (some centres unmarked) [14A*],2.56,2.03,87.04%,–
Cc1cc2c(Cl)nc3c(ncn3[C@H]3[C@H](O)[C@H](O)C4C[C@@H]43)c2[nH]1 (some centres unmarked) [15A*],2.27,0.2,94.66^# %,–
CC1CCc2c(Cl)nc3c(ncn3[C@H]3[C@H](O)[C@H](O)C4C[C@@H]43)c2N1 (some centres unmarked) [16A*],45.7,5.36,55.74%,–
CCOc1nc2c(ncn2[C@H]2[C@H](O)[C@H](O)C3C[C@@H]32)c2[nH]c(C)cc12 (some centres unmarked) [21A*],36,–,–,–
O[C@H]1[C@H](n2cnc3c4[nH]c(C(F)F)cc4c(Cl)nc32)[C@H]2CC2[C@H]1O (some centres unmarked) [24A*],0.916,–,–,–
Cc1cc2c(Cl)nc3c(ncn3[C@H]3[C@H](O)[C@H](O)[C@]4(C(N)=O)C[C@H]34)c2[nH]1 [25A*],24.2,4.15,96.54%,–
Cc1cc2c(Cl)nc3c(ncn3[C@H]3[C@H](O)[C@H](O)[C@]4(C#N)C[C@H]34)c2[nH]1 [26A*],98,100,5%,–
Cn1nnc([C@@]23C[C@@H]2[C@@H](n2cnc4c5[nH]c(C(F)F)cc5c(Cl)nc42)[C@H](O)[C@@H]3O)n1 [Compound 1B],–,–,–,EC50 ([1]; Table 1): 1 nM; cAMP Efficacy (%) ([1]; Table 1): 5%; Ki (human A3 receptors; [4]): 1.09 nM
Cc1cc2c(Cl)nc3c(ncn3[C@H]3[C@H](O)[C@H](O)[C@]4(c5ncnn5C)C[C@H]34)c2[nH]1 [Compound 7B],–,–,–,Ki (human A3 receptors; [4]): 151 nM
CCNc1cc(Cl)nc2c1ncn2[C@H]1[C@H](O)[C@H](O)[C@]2(c3nnnn3C)C[C@H]12 [Compound 11B],–,–,–,Ki (human A3 receptors; [4]): > 806 nM

# More lines, main results first:
Ki (human A3 receptors; [2]) [nM],"EC50 [1, 3] [nM]","cAMP Efficacy (%) [1, 3]",SMILES,further results
1.79,–,–,CNC(=O)[C@H]1O[C@@H](n2cnc3c4[nH]c(C)cc4c(Cl)nc32)[C@H](O)[C@@H]1O [1A*],–
0.543,–,–,CNC(=O)[C@@]12C[C@@H]1[C@@H](n1cnc3c4[nH]c(C)cc4c(Cl)nc31)[C@H](O)[C@@H]2O [2A*],–
1.33,0.38,102.76%,Cc1cc2c(Cl)nc3c(ncn3[C@@H]3O[C@H](CO)[C@@H](O)[C@H]3O)c2[nH]1 [6A*],–
5.84,6,107.96%,CNC(=O)[C@@]12C[C@@H]1[C@@H](n1cnc3c4c(c(Cl)nc31)C(O)CC(C)N4)[C@H](O)[C@@H]2O (some centres unmarked) [8A* and 8B*],–
2,0.48,105.25%,CNC(=O)[C@@]12C[C@@H]1[C@@H](n1cnc3c4c(c(Cl)nc31)CCC(C)N4)[C@H](O)[C@@H]2O (some centres unmarked) [10A*],–
1.8,–,–,Cc1nc2c(Cl)nc3c(ncn3[C@H]3[C@H](O)[C@H](O)C4C[C@@H]43)c2[nH]1 (some centres unmarked) [22A*],–
